Results published in patent US11584714B2 (priority 2018, dated 2023).
Counter-ions that a name gives are not always drawn. Like-named read-outs stand apart in the source and are kept apart here.

Columns and labels:
Assay type in all cases: biochemical
MASP-2 (CCP1-CCP2-SP) = MASP-2 (CCP1-CCP2-SP) (Homo sapiens (Human), UniProt O00187); assay: biochemical; conditions: for MASP-2 vs. thrombin selectivity: selectivity for MASP-2 inhibition versus thrombin
human α-thrombin = human α-thrombin (Homo sapiens (Human), UniProt P00734); assay: Enzymatic assay for thrombin (Boc-VPR-AMC substrate)
mMASP-2 = mMASP-2 (Mus musculus (Mouse), UniProt Q91WP0); assay: Enzymatic inhibition of mMASP-2; conditions: read-out: mMASP-2 Ki
Chain of mMASP-2 (Q91WP0 20-685): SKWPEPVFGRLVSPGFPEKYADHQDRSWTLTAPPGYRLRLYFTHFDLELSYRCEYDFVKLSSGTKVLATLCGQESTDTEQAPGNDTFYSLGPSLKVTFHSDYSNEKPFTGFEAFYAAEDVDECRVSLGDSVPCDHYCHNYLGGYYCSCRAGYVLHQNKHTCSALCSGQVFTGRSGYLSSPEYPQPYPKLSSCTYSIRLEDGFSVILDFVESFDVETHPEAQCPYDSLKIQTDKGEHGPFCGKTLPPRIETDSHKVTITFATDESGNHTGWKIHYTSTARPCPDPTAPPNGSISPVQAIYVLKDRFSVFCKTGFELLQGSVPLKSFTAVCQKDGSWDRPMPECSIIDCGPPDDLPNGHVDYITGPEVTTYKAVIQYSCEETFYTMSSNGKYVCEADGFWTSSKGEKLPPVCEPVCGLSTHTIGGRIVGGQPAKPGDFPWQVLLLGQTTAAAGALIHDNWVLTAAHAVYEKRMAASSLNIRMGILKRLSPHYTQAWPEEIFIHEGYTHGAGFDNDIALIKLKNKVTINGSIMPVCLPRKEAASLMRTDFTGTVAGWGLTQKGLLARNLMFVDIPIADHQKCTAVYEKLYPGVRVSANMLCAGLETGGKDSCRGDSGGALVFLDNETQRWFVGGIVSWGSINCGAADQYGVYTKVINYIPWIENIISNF

Chain of MASP-2 (CCP1-CCP2-SP) (O00187 445-686): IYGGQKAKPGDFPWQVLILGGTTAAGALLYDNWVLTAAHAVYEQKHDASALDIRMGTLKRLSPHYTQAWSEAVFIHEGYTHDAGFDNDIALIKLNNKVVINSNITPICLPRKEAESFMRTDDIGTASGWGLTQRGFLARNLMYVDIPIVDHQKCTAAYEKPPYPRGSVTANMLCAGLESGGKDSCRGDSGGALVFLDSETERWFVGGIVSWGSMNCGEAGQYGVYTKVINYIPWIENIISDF

Row | Compound | Ki (MASP-2 (CCP1-CCP2-SP); read-out: MASP-2 Ki) | MASP-2 vs. thrombin selectivity (MASP-2 (CCP1-CCP2-SP)) | Ki (human α-thrombin; read-out: Thrombin Ki) | Ki (mMASP-2) | Ki (human α-thrombin; Thrombin Ki (μM)) | Ki (MASP-2 (CCP1-CCP2-SP))
1 | Cc1nc(N)ccc1CNC(=O)[C@H](C)NC(=O)[C@H]1C[C@H](Cc2ccc(-c3ccccc3)cc2)CN1 [compound 1351, (2R,4S)-4-([1,1′-Biphenyl]-4-ylmethyl)-N-((S)-1-(((6-amino-2-methylpyridin-3-yl)methyl)amino)-1-oxopropan-2-yl)pyrrolidine-2-carboxamide Dihydrochloride] | < 0.5 µM | **** (≥100-fold) | > 25 µM | < 0.5 µM |  | 
2 | Cc1nc(N)ccc1CNC(=O)[C@H](C)NC(=O)[C@@H]1C[C@H](Cc2ccccc2)CCN1 [compound 1354, (2S,4R)—N—((S)-1-(((6-Amino-2-methylpyridin-3-yl)methyl)amino)-1-oxopropan-2-yl)-4-benzylpiperidine-2-carboxamide Dihydrochloride] | < 0.5 µM | *** (≥25 to <100-fold) |  | 0.5 to 2.5 µM | 2.5 to 10 µM | 
3 | Cc1cc(Br)cc(CNC(=O)[C@H](C)NC(=O)[C@H](N)CCc2ccccc2)c1O [compound 1355, (R)-2-amino-N—((S)-1-((5-bromo-2-hydroxy-3-methylbenzyl)amino)-1-oxopropan-2-yl)-4-phenylbutanamide Trifluoroacetate salt] | < 0.5 µM |  | > 25 µM | 10 to 25 µM |  | 
4 | C[C@H](NC(=O)[C@H]1C[C@H](Cc2ccc(-c3ccccc3)cc2)CN1)C(=O)NCc1cnc2[nH]cc(Cl)c2c1 [compound 1356, (2R,4S)-4-([1,1′-Biphenyl]-4-ylmethyl)-N-((S)-1-(((3-chloro-1H-pyrrolo[2,3-b]pyridin-5-yl)methyl)amino)-1-oxopropan-2-yl)pyrrolidine-2-carboxamide Di-trifluoroacetate salt] | < 0.5 µM | **** (≥100-fold) | > 25 µM | < 0.5 µM |  | 
5 | Cc1nc(N)ccc1CNC(=O)[C@H](C)NC(=O)[C@H]1C[C@H](Cc2ccc(-c3cccnc3)cc2)CN1 [compound 1357, (2R,4S)—N—((S)-1-(((6-Amino-2-methylpyridin-3-yl)methyl)amino)-1-oxopropan-2-yl)-4-(4-(pyridin-3-yl)benzyl)pyrrolidine-2-carboxamide Di-trifluoroacetate salt] | < 0.5 µM | **** (≥100-fold) | > 25 µM | < 0.5 µM |  | 
6 | C[C@H](NC(=O)[C@H]1C[C@H](c2ccccc2)CN1)C(=O)NCc1cc(Cl)cnc1N [compound 1358, (2R,4R)—N—((S)-1-(((2-Amino-5-chloropyridin-3-yl)methyl)amino)-1-oxopropan-2-yl)-4-phenylpyrrolidine-2-carboxamide Di-trifluoroacetate salt] |  |  | > 25 µM | > 25 µM |  | 0.5 to 2.5 µM
7 | C[C@H](NC(=O)[C@H]1C[C@H](c2ccccc2)CN1)C(=O)NCc1ccc2[nH]cc(Cl)c2c1 [compound 1362, (2R,4R)—N—((S)-1-(((3-Chloro-1H-indol-5-yl)methyl)amino)-1-oxopropan-2-yl)-4-phenylpyrrolidine-2-carboxamide] |  | * (≥1.0 to <5.0-fold) |  | 0.5 to 2.5 µM | 0.5 to 2.5 µM | 0.5 to 2.5 µM
8 | C[C@H](NC(=O)[C@H]1C[C@H](c2ccccc2)CN1)C(=O)NCc1cc(O)cc(Cl)c1 [compound 1364, (2R,4R)—N—((S)-1-((3-Chloro-5-hydroxybenzyl)amino)-1-oxopropan-2-yl)-4-phenylpyrrolidine-2-carboxamide Hydrochloride] |  |  | > 25 µM | 10 to 25 µM |  | 0.5 to 2.5 µM
9 | Cc1cc(Cl)cc(CNC(=O)[C@H](C)NC(=O)[C@H]2C[C@@H](c3ccccc3)CCN2)c1O [compound 1365, (2R,4S)—N—((S)-1-((5-Chloro-2-hydroxy-3-methylbenzyl)amino)-1-oxopropan-2-yl)-4-phenylpiperidine-2-carboxamide Hydrochloride] | < 0.5 µM | **** (≥100-fold) | > 25 µM | < 0.5 µM |  | 
10 | C[C@H](NC(=O)[C@H]1C[C@H](c2ccccc2)CN1)C(=O)NCc1ccn2ccnc2c1 [compound 1366, (2R,4R)—N—((S)-1-((Imidazo[1,2-a]pyridin-7-ylmethyl)amino)-1-oxopropan-2-yl)-4-phenylpyrrolidine-2-carboxamide Dihydrochloride] |  |  | > 25 µM | 2.5 to 10 µM |  | 2.5 to 10 µM
11 | Cc1nc(N)ccc1CNC(=O)[C@H](C)NC(=O)c1cc(Cc2ccccc2)n[nH]1 [compound 1367, (S)—N-(1-(((6-Amino-2-methylpyridin-3-yl)methyl)amino)-1-oxopropan-2-yl)-3-benzyl-1H-pyrazole-5-carboxamide] | < 0.5 µM |  | > 25 µM | 10 to 25 µM |  | 
12 | CC(=O)Nc1ccc(CCN[C@H](CCc2ccccc2)C(=O)N[C@@H](C)C(=O)NCc2ccc(N)nc2C)cc1 [compound 1368, (R)-2-((4-Acetamidophenethyl)amino)-N-((S)-1-(((6-amino-2-methylpyridin-3-yl)methyl)amino)-1-oxopropan-2-yl)-4-phenylbutanamide Dihydrochloride] |  | ** (≥5.0 to <25-fold) | > 25 µM | 10 to 25 µM |  | 0.5 to 2.5 µM
13 | Cc1cccc(C[C@@H]2CN[C@@H](C(=O)N[C@@H](C)C(=O)NCc3cc(Cl)cc(C)c3O)C2)c1 [compound 1369, (2R,4S)—N—((S)-1-((5-Chloro-2-hydroxy-3-methylbenzyl)amino)-1-oxopropan-2-yl)-4-(3-methylbenzyl)pyrrolidine-2-carboxamide Hydrochloride] | < 0.5 µM | **** (≥100-fold) | > 25 µM | < 0.5 µM |  | 
14 | Cc1nc(N)ccc1CNC(=O)[C@H](C)NC(=O)[C@H]1C[C@H](Cc2ccccc2-c2ccccc2)CN1 [compound 1373, (2R,4S)-4-([1,1′-Biphenyl]-2-ylmethyl)-N-((S)-1-(((6-amino-2-methylpyridin-3-yl)methyl)amino)-1-oxopropan-2-yl)pyrrolidine-2-carboxamide Di-trifluoroacetate salt] | < 0.5 µM | *** (≥25 to <100-fold) |  | < 0.5 µM | 0.5 to 2.5 µM | 
15 | Cc1cc(Cl)cc(CNC(=O)[C@H](C)NC(=O)[C@H]2C[C@H](Cc3ccc(Br)cc3)CN2)c1O [compound 1374, (2R,4S)-4-(4-bromobenzyl)-N-((S)-1-((5-chloro-2-hydroxy-3-methylbenzyl)amino)-1-oxopropan-2-yl)pyrrolidine-2-carboxamide Hydrochloride] | < 0.5 µM |  | > 25 µM | < 0.5 µM |  | 
16 | CCCCCN[C@H](CCc1ccccc1)C(=O)N[C@@H](C)C(=O)NCc1ccc(N)nc1C [compound 1377, (R)—N—((S)-1-(((6-Amino-2-methylpyridin-3-yl)methyl)amino)-1-oxopropan-2-yl)-2-(pentylamino)-4-phenylbutanamide Di-trifluoroacetate salt] |  | ** (≥5.0 to <25-fold) |  | > 25 µM | 10 to 25 µM | 0.5 to 2.5 µM
17 | Cc1nc(N)ccc1CNC(=O)[C@H](C)NC(=O)[C@H]1C[C@H](Cc2ccc(C3CCC3)cc2)CN1 [compound 1379, (2R,4S)—N—((S)-1-(((6-Amino-2-methylpyridin-3-yl)methyl)amino)-1-oxopropan-2-yl)-4-(4-cyclobutylbenzyl)pyrrolidine-2-carboxamide Di-trifluoroacetate salt] | < 0.5 µM | **** (≥100-fold) | > 25 µM | < 0.5 µM |  | 
18 | Cc1nc(N)ccc1CNC(=O)[C@H](C)NC(=O)[C@@H](CCc1ccccc1)NCc1ccc(C(=O)N2CCOCC2)cc1 [compound 1381, (R)—N—((S)-1-(((6-Amino-2-methylpyridin-3-yl)methyl)amino)-1-oxopropan-2-yl)-2-((4-(morpholine-4-carbonyl)benzyl)amino)-4-phenylbutanamide Di-trifluoroacetate salt] |  | ** (≥5.0 to <25-fold) |  | 10 to 25 µM | 10 to 25 µM | 0.5 to 2.5 µM
19 | C[C@H](NC(=O)[C@H]1C[C@H](c2ccccc2)CN1)C(=O)NCc1cnc2[nH]nc(Cl)c2c1 [compound 1384, (2R,4R)—N—((S)-1-(((3-Chloro-1H-pyrazolo[3,4-b]pyridin-5-yl)methyl)amino)-1-oxopropan-2-yl)-4-phenylpyrrolidine-2-carboxamide Dihydrochloride] |  | * (≥1.0 to <5.0-fold) | > 25 µM | > 25 µM |  | 10 to 25 µM
20 | C[C@H](NC(=O)[C@H]1C[C@H](Cc2ccc3ccccc3c2)CN1)C(=O)NCc1cc(Cl)ccc1-n1cnnn1 [compound 1385, (2R,4S)—N—((S)-1-((5-chloro-2-(1H-tetrazol-1-yl)benzyl)amino)-1-oxopropan-2-yl)-4-(naphthalen-2-ylmethyl)pyrrolidine-2-carboxamide Trifluoroacetate salt] | < 0.5 µM | ** (≥5.0 to <25-fold) | < 0.5 µM | < 0.5 µM |  | 
21 | C[C@H](NC(=O)[C@H]1C[C@H](c2ccccc2)CN1)C(=O)NCc1cc(Cl)cc(C#N)c1 [compound 1386, (2R,4R)—N—((S)-1-((3-Chloro-5-cyanobenzyl)amino)-1-oxopropan-2-yl)-4-phenylpyrrolidine-2-carboxamide Trifluoroacetate salt] |  |  | > 25 µM | > 25 µM |  | 10 to 25 µM
22 | C[C@H](NC(=O)[C@H]1C[C@H](c2ccccc2)CN1)C(=O)NCc1cc(Cl)cc(C(N)=O)c1 [compound 1387, (2R,4R)—N—((S)-1-((3-Carbamoyl-5-chlorobenzyl)amino)-1-oxopropan-2-yl)-4-phenylpyrrolidine-2-carboxamide Trifluoroacetate salt] |  |  | > 25 µM | 10 to 25 µM |  | 2.5 to 10 µM
23 | C[C@H](NC(=O)[C@H]1C[C@H](c2ccccc2)CN1)C(=O)NCc1ccc2c(N)noc2c1 [compound 1390, (2R,4R)—N—((S)-1-(((3-Aminobenzo[d]isoxazol-6-yl)methyl)amino)-1-oxopropan-2-yl)-4-phenylpyrrolidine-2-carboxamide Di-trifluoroacetate salt] |  |  | > 25 µM | > 25 µM |  | 2.5 to 10 µM
